The text below walks through data of publication PMC6958329, “New ^55Co-labeled Albumin-Binding Folate Derivatives as Potential PET Agents for Folate Receptor Imaging” (Pharmaceuticals, 2019).

The subject of the assay is FR-expressing KB cells. Nature of the assay: Cell binding and internalization in KB cells. The class given is cell-based, human. The following applies: for uptake blocked by co-incubation with folic acid: 0.7 mM folic acid. How it is done: Cellular assays were performed using the human cervical cancer KB cell line, which was cultured in folate-deficient cell media prior to use. The ^55Co-labeled folates were incubated with FR-expressing KB cells to determine total uptake (i.e., all cell-associated activity, both surface-bound and internalized) and the internalized fraction. To determine whether uptake was receptor-mediated, some cells were co-incubated with folic acid, which binds to FRs with high affinity to act as a blocking agent. […] The uptake profiles for both of the tested radiofolates were similar to each other and more similar to the previously reported [^68Ga]Ga-rf42 complex, in contrast to [^64Cu]Cu-rf42 [14]. In the case of [^55Co]Co-cm10, 26% of the total uptake was internalized with 95% of the uptake blocked by co-incubation of the cells with 0.7 mM of folic acid (Figure 3).
The human cervical cancer cell line KB (CCL-17) was purchased from ATCC (Manassas, VA, USA) and cells were cultured in Gibco folate-deficient RPMI 1640 growth medium (FFRPMI, Thermo Scientific, Waltham, MA, USA) supplemented with 10% fetal bovine serum, and Gibco 1% Antibiotic-Antimycotic. Cells were cultured following standard procedures and were incubated at 37 °C in a 5% CO2 environment and harvested using Gibco 0.25% trypsin-EDTA.
Cell internalization was performed similarly to a previously published procedure. KB cells were harvested, washed with supplemented FFRPMI, and resuspended in supplemented FFRPMI at a final concentration of 1 × 10^5 cells/mL for seeding. In […], 1 mL of the cell mixture was added to each well, and the plates were incubated overnight to allow for adhesion and growth. The following morning, the radiofolates were prepared at molar activities of 331.7 MBq/μmol (9.0 mCi/µmol) [^55Co]Co-cm10 and 299.5 MBq/μmol (8.1 mCi/μmol) in 50 μL final volume and then diluted in supplement free FFRPMI (either with or without 1 mM folic acid) to a final volume of 1 mL/well. The plates were collected, the supernatants discarded, and 1 mL of the dilute radiofolates in media was added to each well (n = 4 for each condition). […] The stripping buffer and lysed cell fractions were collected separately and counted using an automatic gamma counter.
The lysed cell fractions in NaOH were saved, and the total protein concentration for each sample was determined using a Pierce Micro BCA Protein Assay kit (Thermo Scientific, Waltham, MA, USA). The samples were vortexed vigorously prior to assaying, and were analyzed without further dilution. The results were used to normalize the measured radioactivity to the average protein content in each well.

Consider `Nc1nc2ncc(CNc3ccc(C(=O)N[C@@H](CCC(=O)NC(CCCCNC(=O)CN4CCN(CC(=O)O)CCN(CC(=O)O)CCN(CC(=O)O)CC4)C(=O)NC(CCCCNC(=O)CCCc4ccc(I)cc4)C(=O)O)C(=O)O)cc3)nc2c(=O)[nH]1.[55Co]` (stereo partly shown) [[^55Co]Co-cm10], for which the “fraction of total uptake internalized” value amounted to 26% and the “uptake blocked by co-incubation with folic acid” value came out at 95%.
On the same counts, the results for `Nc1nc2ncc(CNc3ccc(C(=O)N[C@@H](CCC(=O)NC(CCCCNC(=O)CCC(C(=O)O)N4CCN(CC(=O)O)CCN(CC(=O)O)CC4)C(=O)NC(CCCCNC(=O)CCCc4ccc(I)cc4)C(=O)O)C(=O)O)cc3)nc2c(=O)[nH]1.[55Co]` (stereo partly shown) [[^55Co]Co-rf42] are 24% and 97%.
